Values after ≈ are worked out from the molar mass of the structure shown. Where two headings read alike, the source gives them in different places.
Experiments:
[1] = tested on: Staph. aureus ATCC700787 (MRSA/VISA); assay: MIC/FIC/FICI determination, MHB broth microdilution (CLSI M07-A9); type: cell-based; settings: Staphylococcus aureus
[2] = tested on: Staph. aureus ATCC29213 (semi-resistant); assay: MIC determination, MHB broth microdilution (CLSI M07-A9); type: cell-based; settings: Staphylococcus aureus
[3] = tested on: Enterococcus faecium ATCC700221 (VRE); assay: MIC/FIC/FICI determination, MHB broth microdilution (CLSI M07-A9); type: cell-based; settings: single compound
[4] = tested on: VRSA (vancomycin-resistant Staphylococcus aureus); settings: cited from earlier work
[5] = rat, in vivo; cited from earlier work
[6] = rat, in vivo, topical or ocular; cited from earlier work

CCCCCCCCCC(=O)N[C@@H](Cc1c[nH]c2ccccc12)C(=O)N[C@H](CC(N)=O)C(=O)N[C@@H](CC(=O)O)C(=O)N[C@@H]1C(=O)NCC(=O)N[C@@H](CCCN)C(=O)N[C@@H](CC(=O)O)C(=O)N[C@H](C)C(=O)N[C@@H](CC(=O)O)C(=O)NCC(=O)N[C@H](CO)C(=O)N[C@@H]([C@H](C)CC(=O)O)C(=O)N[C@@H](CC(=O)c2ccccc2N)C(=O)O[C@@H]1C [daptomycin]
MIC ([1]; single compound, 24 hours exposure, read-out: MIC): 4 µg/mL
MIC ([1]; single compound, 48 hours exposure, read-out: MIC): 8 µg/mL
MIC ([2]; ATCC29213, single compound, 24 hours exposure, read-out: MIC): 2 µg/mL (≈ 1.23 µM)
MIC ([2]; ATCC29213, single compound, 48 hours exposure, read-out: MIC): 2 µg/mL (≈ 1.23 µM)
MIC ([3]; 24 hours exposure): 8 µg/mL
MIC ([3]; 48 hours exposure): 8 µg/mL

CN[C@H](CC(C)C)C(=O)N[C@H]1C(=O)N[C@@H](CC(N)=O)C(=O)N[C@H]2C(=O)N[C@H]3C(=O)N[C@H](C(=O)N[C@H](C(=O)O)c4cc(O)cc(O)c4-c4cc3ccc4O)[C@H](O)c3ccc(c(Cl)c3)Oc3cc2cc(c3O[C@@H]2O[C@H](CO)[C@@H](O)[C@H](O)[C@H]2O[C@H]2C[C@](C)(N)[C@H](O)[C@H](C)O2)Oc2ccc(cc2Cl)[C@H]1O [vancomycin]
MIC ([1]; 24 h): 8 µg/mL
MIC ([1]; 48 h): 8 µg/mL
MIC ([2]; ATCC29213, 24 h): 2 µg/mL (≈ 1.38 µM)
MIC ([2]; ATCC29213, 48 h): 2 µg/mL (≈ 1.38 µM)
MIC for vancomycin [4]: ≥ 16 µg/mL

rhamnolipids
acute oral toxicity LD50 [5]: > 5000 mg/kg
acute dermal toxicity LD50 [6]: > 5000 mg/kg
